Tests used:
[1] = tested on: L1210; assay: Antitumor activity against mouse L1210 cells […] in ip dosed C3H X DBA2 F1 hybrid mouse on day 0 and dosed at LD10 level once daily on days 1 to 5 assessed as increase in life span relative to control; assay type: functional
[2] = tested on: Mus musculus; assay: Toxicity in ip dosed C3H X DBA2 F1 hybrid mouse […] with mouse L1210 cells on day 0 and dosed once daily on days 1 to 5 measured after 50 days; assay type: organism-based; settings: in vivo, 1200 h
[3] = tested on: L1210; assay: Antitumor activity against mouse L1210 cells […] in ip dosed C3H X DBA2 F1 hybrid mouse on day 0 and dosed once daily on days 1 to 5 assessed as increase in life span relative to control; assay type: functional
[4] = Lipophilic-hydrophilic balance, Rm of the compound by partition chromatography; assay type: physicochemical

SMILES: CC[n+]1cccc(NC(=O)c2ccc(NC(=O)c3ccc(C(=O)Nc4ccc(C(=O)Nc5ccc[n+](CC)c5)c(OC)c4)cc3)cc2OC)c1.Cc1ccc(S(=O)(=O)[O-])cc1.Cc1ccc(S(=O)(=O)[O-])cc1
- log(ILSmax) [1]: 1.76
- LD10 [2]: 40 mg/kg
- D40 [3]: 24 mg/kg
- Rm [4]: 0.45

SMILES: CC[n+]1cccc(NC(=O)c2ccc(NC(=O)c3ccc(C(=O)Nc4ccc(C(=O)Nc5ccc[n+](CC)c5)cc4)c(Cl)c3)cc2)c1.Cc1ccc(S(=O)(=O)[O-])cc1.Cc1ccc(S(=O)(=O)[O-])cc1
- log(ILSmax) [1]: 1.7
- LD10 [2]: 29 mg/kg
- D40 [3]: 22 mg/kg
- Rm [4]: 0.42

SMILES: CCC[n+]1cccc(NC(=O)c2ccc(NC(=O)/C=C/c3ccc(C(=O)Nc4ccc(C(=O)Nc5ccc[n+](CCC)c5)cc4)cc3)cc2)c1.Cc1ccc(S(=O)(=O)[O-])cc1.Cc1ccc(S(=O)(=O)[O-])cc1
- log(ILSmax) [1]: 1.95
- LD10 [2]: 46 mg/kg
- D40 [3]: 11.5 mg/kg
- Rm [4]: -0.2

SMILES: CC[n+]1cc(-c2ccc(NC(=O)c3ccc(Nc4cc[n+](CC)c5ccccc45)cc3)cc2)c(N)nc1N.[I-].[I-]
- log(ILSmax) [1]: 2.11
- LD10 [2]: 32 mg/kg
- D40 [3]: 3.3 mg/kg
- Rm [4]: 0.45

SMILES: CC[n+]1cccc(NC(=O)c2ccc(NC(=O)c3ccc(C(=O)Nc4ccc(C(=O)Nc5ccc[n+](CC)c5)c(N)c4)cc3)cc2N)c1.Cc1ccc(S(=O)(=O)[O-])cc1.Cc1ccc(S(=O)(=O)[O-])cc1
- log(ILSmax) [1]: 2.18
- LD10 [2]: 10 mg/kg
- D40 [3]: 3.2 mg/kg
- Rm [4]: -0.65

SMILES: CC[n+]1ccc(Nc2ccc(NC(=O)/C=C/c3ccc(/C=C/C(=O)Nc4ccc(Nc5cc[n+](CC)cc5)cc4)cc3)cc2)cc1.Cc1ccc(S(=O)(=O)[O-])cc1.Cc1ccc(S(=O)(=O)[O-])cc1
- log(ILSmax) [1]: 1.88
- LD10 [2]: 32 mg/kg
- D40 [3]: 9 mg/kg
- Rm [4]: -0.05

SMILES: CCC[n+]1cccc(NC(=O)c2ccc(NC(=O)c3ccc(C(=O)Nc4ccc(C(=O)Nc5ccc[n+](CCC)c5)cc4OC)cc3)c(OC)c2)c1.Cc1ccc(S(=O)(=O)[O-])cc1.Cc1ccc(S(=O)(=O)[O-])cc1
- log(ILSmax) [1]: 1.6
- LD10 [2]: 140 mg/kg
- D40 [3]: 140 mg/kg
- Rm [4]: 0.3

SMILES: CC[n+]1cccc(-c2ccc(NC(=O)/C=C/c3ccc(C(=O)Nc4ccc(-c5ccc(-c6ccc(-c7ccc[n+](CC)c7)cc6)cc5)cc4)cc3)cc2)c1.Cc1ccc(S(=O)(=O)[O-])cc1.Cc1ccc(S(=O)(=O)[O-])cc1
- log(ILSmax) [1]: 2.25
- LD10 [2]: 60 mg/kg
- D40 [3]: 5.2 mg/kg
- Rm [4]: -0.3

SMILES: CC[n+]1ccc(Nc2ccc(NC(=O)c3ccc(Nc4cc[n+](CC)c5ccccc45)cc3)cc2N)cc1.[I-].[I-]
- log(ILSmax) [1]: 1.69
- LD10 [2]: 10 mg/kg
- D40 [3]: 5.1 mg/kg
- Rm [4]: 0.56

SMILES: CC[n+]1cccc(C(=O)Nc2ccc(NC(=O)c3ccc(C(=O)Nc4ccc5c(ccc[n+]5CC)c4)cc3)cc2)c1.Cc1ccc(S(=O)(=O)[O-])cc1.Cc1ccc(S(=O)(=O)[O-])cc1
- log(ILSmax) [1]: 1.89
- LD10 [2]: 6 mg/kg
- D40 [3]: 3.1 mg/kg
- Rm [4]: -0.12

SMILES: COCC[n+]1cccc2cc(NC(=O)c3ccc(C(=O)Nc4ccc5c(ccc[n+]5CCOC)c4)cc3)ccc21.Cc1ccc(S(=O)(=O)[O-])cc1.Cc1ccc(S(=O)(=O)[O-])cc1
- log(ILSmax) [1]: 2.04
- LD10 [2]: 17 mg/kg
- D40 [3]: 11 mg/kg
- Rm [4]: 0.4

SMILES: CC[n+]1ccc(Nc2ccc(NC(=O)/C=C/c3ccc(C(=O)Nc4ccc(Nc5cc[n+](CC)cc5)c(N)c4)cc3)cc2N)cc1.[Br-].[Br-]
- log(ILSmax) [1]: 2.3
- LD10 [2]: 7.5 mg/kg
- D40 [3]: 1.4 mg/kg
- Rm [4]: 0.35

SMILES: C[n+]1cccc(NC(=O)c2ccc(NC(=O)c3ccc(C(=O)Nc4ccc(C(=O)Nc5ccc[n+](C)c5)cc4)cc3)cc2)c1.[I-].[I-]
- log(ILSmax) [1]: 2.02
- LD10 [2]: 17 mg/kg
- D40 [3]: 7.5 mg/kg
- Rm [4]: -0.12

SMILES: CC[n+]1cccc2cc(NC(=O)COc3ccc(C(=O)Nc4ccc5c(ccc[n+]5CC)c4)cc3)ccc21.Cc1ccc(S(=O)(=O)[O-])cc1.Cc1ccc(S(=O)(=O)[O-])cc1
- log(ILSmax) [1]: 1.4
- LD10 [2]: 4 mg/kg
- D40 [3]: 4 mg/kg
- Rm [4]: -0.11

SMILES: CCC[n+]1cc(-c2ccc(NC(=O)c3ccc(Nc4cc[n+](CCC)c5ccc(N)cc45)cc3N)cc2)c(N)nc1N.Cc1ccc(S(=O)(=O)[O-])cc1.Cc1ccc(S(=O)(=O)[O-])cc1
- log(ILSmax) [1]: 2.03
- LD10 [2]: 50 mg/kg
- D40 [3]: 13.7 mg/kg
- Rm [4]: 0.56

SMILES: CCC[n+]1cccc(NC(=O)c2ccc(NC(=O)c3ccc(C(=O)Nc4ccc5c(ccc[n+]5CCC)c4)cc3)cc2)c1.Cc1ccc(S(=O)(=O)[O-])cc1.Cc1ccc(S(=O)(=O)[O-])cc1
- log(ILSmax) [1]: 2.17
- LD10 [2]: 20 mg/kg
- D40 [3]: 10.2 mg/kg
- Rm [4]: 0.44

SMILES: C[n+]1ccc(Nc2ccc(NC(=O)c3ccc(C(=O)Nc4ccc(C(=O)Nc5ccc[n+](C)c5)cc4)cc3)cc2)cc1.[I-].[I-]
- log(ILSmax) [1]: 2.12
- LD10 [2]: 4.5 mg/kg
- D40 [3]: 0.5 mg/kg
- Rm [4]: -0.12

SMILES: CCC[n+]1cccc2cc(NC(=O)c3ccc(NC(=O)c4ccc(C(=O)Nc5ccc6c(ccc[n+]6CCC)c5)cc4)cc3)ccc21.Cc1ccc(S(=O)(=O)[O-])cc1.Cc1ccc(S(=O)(=O)[O-])cc1
- log(ILSmax) [1]: 1.92
- LD10 [2]: 95 mg/kg
- D40 [3]: 38 mg/kg
- Rm [4]: -0.21

SMILES: CCC[n+]1ccc(Nc2ccc(NC(=O)c3ccc(Nc4cc[n+](CCC)c5ccccc45)cc3N)cc2)cc1.[I-].[I-]
- log(ILSmax) [1]: 1.6
- LD10 [2]: 24 mg/kg
- D40 [3]: 24 mg/kg
- Rm [4]: 0.71

SMILES: CC[n+]1cccc(NC(=O)c2ccc(NC(=O)c3ccc(C(=O)Nc4ccc(C(=O)Nc5ccc[n+](CC)c5)cc4)c(C)c3)cc2)c1.Cc1ccc(S(=O)(=O)[O-])cc1.Cc1ccc(S(=O)(=O)[O-])cc1
- log(ILSmax) [1]: 1.85
- LD10 [2]: 26 mg/kg
- D40 [3]: 9.6 mg/kg
- Rm [4]: 0.38

SMILES: C[n+]1cccc(NC(=O)c2ccc(NC(=O)c3ccc(C(=O)Nc4ccc(C(=O)Nc5ccc[n+](C)c5)cc4)cc3)cc2)c1.Cc1ccc(S(=O)(=O)[O-])cc1.Cc1ccc(S(=O)(=O)[O-])cc1
- log(ILSmax) [1]: 2.13
- LD10 [2]: 56 mg/kg
- D40 [3]: 5.9 mg/kg
- Rm [4]: -0.74

SMILES: CCC[n+]1cccc(NC(=O)c2ccc(NC(=O)c3ccc(C(=O)Nc4ccc(C(=O)Nc5ccc[n+](CCC)c5)cc4)c(OC)c3)cc2)c1.Cc1ccc(S(=O)(=O)[O-])cc1.Cc1ccc(S(=O)(=O)[O-])cc1
- log(ILSmax) [1]: 1.6
- LD10 [2]: 22 mg/kg
- D40 [3]: 22 mg/kg
- Rm [4]: 0.78

SMILES: CC[n+]1cccc2ccc(NC(=O)c3ccc(-c4ccc(-c5ccc(-c6ccc(C(=O)Nc7ccc8ccc[n+](CC)c8c7)cc6)cc5)cc4)cc3)cc21.Cc1ccc(S(=O)(=O)[O-])cc1.Cc1ccc(S(=O)(=O)[O-])cc1
- log(ILSmax) [1]: 2.02
- LD10 [2]: 106 mg/kg
- D40 [3]: 20.4 mg/kg
- Rm [4]: 0.08

SMILES: CCC[n+]1cccc(NC(=O)c2ccc(NC(=O)c3ccc(C(=O)Nc4ccc(C(=O)Nc5ccc[n+](CCC)c5)c(OC)c4)cc3)cc2OC)c1.Cc1ccc(S(=O)(=O)[O-])cc1.Cc1ccc(S(=O)(=O)[O-])cc1
- log(ILSmax) [1]: 1.79
- LD10 [2]: 37 mg/kg
- D40 [3]: 22 mg/kg
- Rm [4]: 0.7

SMILES: CCC[n+]1cccc2cc(NC(=O)c3ccc(C(=O)Nc4ccc5c(ccc[n+]5CCC)c4)cc3)ccc21.Cc1ccc(S(=O)(=O)[O-])cc1.Cc1ccc(S(=O)(=O)[O-])cc1
- log(ILSmax) [1]: 1.89
- LD10 [2]: 21 mg/kg
- D40 [3]: 15 mg/kg
- Rm [4]: 0.3

SMILES: CC[n+]1cccc(NC(=O)c2ccc(NC(=O)c3ccc(C(=O)Nc4ccc(C(=O)Nc5ccc[n+](CC)c5)cc4)c(OC)c3)cc2)c1.Cc1ccc(S(=O)(=O)[O-])cc1.Cc1ccc(S(=O)(=O)[O-])cc1
- log(ILSmax) [1]: 1.85
- LD10 [2]: 20 mg/kg
- D40 [3]: 18 mg/kg
- Rm [4]: 0.55

SMILES: CCCC[n+]1cccc2cc(NC(=O)c3ccc(C(=O)Nc4ccc5c(ccc[n+]5CCCC)c4)c(N)c3)ccc21.Cc1ccc(S(=O)(=O)[O-])cc1.Cc1ccc(S(=O)(=O)[O-])cc1
- log(ILSmax) [1]: 1.72
- LD10 [2]: 18 mg/kg
- D40 [3]: 9 mg/kg
- Rm [4]: 0.6

SMILES: C[n+]1cccc(NC(=O)c2ccc(NC(=O)c3ccc(C(=O)Nc4ccc5c(ccc[n+]5C)c4)cc3)cc2)c1.Cc1ccc(S(=O)(=O)[O-])cc1.Cc1ccc(S(=O)(=O)[O-])cc1
- log(ILSmax) [1]: 2.03
- LD10 [2]: 27 mg/kg
- D40 [3]: 12 mg/kg
- Rm [4]: -0.25

SMILES: C[n+]1cccc2cc(NC(=O)c3ccc(-c4ccc(-c5ccc(-c6ccc(C(=O)Nc7ccc8c(ccc[n+]8C)c7)cc6)cc5)cc4)cc3)ccc21.Cc1ccc(S(=O)(=O)[O-])cc1.Cc1ccc(S(=O)(=O)[O-])cc1
- log(ILSmax) [1]: 1.9
- LD10 [2]: 65 mg/kg
- D40 [3]: 10 mg/kg
- Rm [4]: -0.52

SMILES: CC[n+]1ccc(Nc2ccc(NC(=O)c3ccc(Nc4cc[n+](CC)c5ccc(N)cc45)cc3)cc2N)cc1.[I-].[I-]
- log(ILSmax) [1]: 2.1
- LD10 [2]: 6.5 mg/kg
- D40 [3]: 1.5 mg/kg
- Rm [4]: 0.15

SMILES: C[n+]1cc(-c2ccc(NC(=O)c3ccc(C(=O)Nc4ccc(-c5c[n+](C)c(N)nc5N)cc4)cc3)cc2)c(N)nc1N.Cc1ccc(S(=O)(=O)[O-])cc1.Cc1ccc(S(=O)(=O)[O-])cc1
- log(ILSmax) [1]: 2.22
- LD10 [2]: 12 mg/kg
- D40 [3]: 1.5 mg/kg
- Rm [4]: -0.42

SMILES: CCC[n+]1cc(-c2ccc(NC(=O)c3ccc(Nc4cc[n+](CCC)c5ccccc45)cc3)cc2)c(N)nc1N.[I-].[I-]
- log(ILSmax) [1]: 1.85
- LD10 [2]: 40 mg/kg
- D40 [3]: 15.8 mg/kg
- Rm [4]: 0.68

Reference: ChEMBL document CHEMBL3228010, “Potential antitumor agents. 29. Quantitative structure-activity relationships for the antileukemic bisquaternary ammonium heterocycles” (J Med Chem, 1979)
